Entries after “also recorded” stand apart in the source; their conditions may differ. Where no end group is shown, it is not given here.
Key:
[1] = biological target: T1, HEV ORF3 and human TSG101 proteins (Homo sapiens, UniProt Q99816); test: In vitro His-pull down assay, ORF3-TSG101 interaction; assay type: binding; conditions: for interaction between ORF3 and TSG101: western blot
T1 construct: made in house; host or cells: ORF3-his: E. coli BL21 (DE3); TSG101-myc: coupled in vitro transcription-translation (TNT T7 kit, Promega; rabbit reticulocyte lysate) from pGBKT7 TSG101
T1 sequence (Q99816 1-390): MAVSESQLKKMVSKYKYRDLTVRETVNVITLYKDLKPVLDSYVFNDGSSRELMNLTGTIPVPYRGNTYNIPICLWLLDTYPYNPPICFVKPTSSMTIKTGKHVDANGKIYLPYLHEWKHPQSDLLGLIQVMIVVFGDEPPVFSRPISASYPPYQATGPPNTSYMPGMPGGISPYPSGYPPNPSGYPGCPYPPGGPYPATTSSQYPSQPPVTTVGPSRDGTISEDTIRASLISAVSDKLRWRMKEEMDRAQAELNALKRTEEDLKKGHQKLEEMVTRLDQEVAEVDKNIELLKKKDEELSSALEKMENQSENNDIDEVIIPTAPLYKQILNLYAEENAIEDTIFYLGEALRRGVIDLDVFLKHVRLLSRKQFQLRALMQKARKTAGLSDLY
Description: (§1) pGBKT7 RdRp, TSG101 and ORF4 plasmids, in which coding sequence for RdRp, TSG101 and ORF4 is cloned under the control of the T7 promoter along with a N-terminal myc epitope tag was used for in vitro production of HEV RdRp, ORF4 and human TSG101 proteins. A coupled in vitro transcription-translation kit (TNT T7 kit) was used, following manufactures guidelines (Promega, Wis., USA). Aliquots of the TNT expressed proteins were mixed with 2× Laemelli buffer [125 mM Tris (pH 6.8), 4% SDS, 20% glycerol, 100 mM DTT and 0.02% bromophenol blue], incubated at 950 C for 5 minutes, resolved by SDS PAGE and western blotted with anti-myc antibody to confirm protein expression.
An in vitro His-pull down assay was performed to monitor whether cyclic peptide inhibits the interaction between HEV ORF3 and human TSG101 proteins. His tagged ORF3 protein was purified from E. coli BL21 (DE3) following previously described protocols (50). Ni-NTA super flow agarose (Thermo Scientific, Massachusetts, USA) bound ORF3-his was equally aliquoted into separate 1.5 ml tubes followed by addition of TNT generated mock lysate, RdRp-myc lysate, TSG101-myc lysate, ORF4-myc lysate and CP11 (1 μM or 10 μM) in the required combinations in phosphate buffered saline (PBS; 10 mM PO43-, 137 mM NaCl, 2.7 mM KCl) supplemented with protease inhibitor cocktail. Samples were incubated on a flip flop shaker at 4° C. for 1 hour, followed by three washes in PBS. 30p1 of 2× Laemelli buffer was added to the beads and incubated at 950 C for 5 minutes. Aliquots of the eluted proteins were resolved by SDS-PAGE and western blotting was done using anti-myc and anti-ORF3 antibodies.
Empty pGBKT7 vector was translated in parallel (denoted as mock lysate) to rule out non-specific cross reactivity of myc antibody with proteins present in the rabbit reticulocyte lysate. RdRp, TSG101 and ORF4 plasmid containing samples produced bands corresponding to their expected size (FIG. 1B). Two non-specific bands were detected in all samples (denoted by *). […]

[2] = system: p6 HEV; test: QRT-PCR of intracellular p6 HEV sense strand RNA; assay type: cell-based; conditions: 10 μM CP11 every alternate day for 6 days; Huh7 cells; normalized to GAPDH
Description: (§2) The genomic RNAs of p6 HEV and p6 HEV-Luc were synthesized in vitro and size/integrity was monitored by formaldehyde agarose gel electrophoresis. ORF4-Huh7 cell line were prepared as reported (48) and maintained in Dulbecco's modified eagle medium containing 10% fetal calf serum, 50 IU/ml penicillin and streptomycin in 5% CO2. 200 μg/ml hygromycin was added to the cells during routine maintenance. Cells were then electroporated with genomic RNAs of p6 HEV and p6 HEV-Luc in a 4 mm cuvette at 200 Volt, 950 μF and infinite resistance. Electroporated cells were maintained in complete media for 5 days prior to the treatment with CP11.
On 6th day post-electroporation/post-infection, HEV infection model was treated every alternate day with 10 μM of CP11 for 6 days followed by measurement of cell viability, quantification of replication of the viral genome and release of the progeny viruses. […]
For measuring levels of p6 HEV sense RNA and host GAPDH RNA, cDNA was synthesized using random hexamers and Superscript III reverse transcriptase. For subsequent quantitative real time, FP of sequence “[…]” (SEQ ID NO:3) and RP of sequence “accgggacagcgtgga” (SEQ ID NO:4) were used for p6 HEV sense and FP of sequence “[…]” (SEQ ID NO:5) and RP of sequence “[…]” (SEQ ID NO:6) were used for host GAPDH RNA.

[3] = system: p6 HEV-Luc replicon; test: p6 HEV-Luc replicon Gaussia luciferase assay; assay type: cell-based; conditions: 10 μM CP11 for 48 hours; Huh7 cells; normalized to cell viability
Description: Possible effect of CP11 on HEV replication was investigated using a Huh7 cell-based model of p6 HEV replicon expressing luciferase. Luciferase assay was done through well-known methods. Briefly, Huh7 cells were electroporated with in vitro synthesized capped genomic RNA of p6 HEV-Luc and maintained in complete media for 5 days prior to the treatment with the cyclic peptide. 6th day post electroporation, 10 μM CP11 was added for 48 hours. Gaussia luciferase activity in the culture media was measured using Renilla luciferase assay kit (Promega, Wisconsin, USA). Luciferase values were normalized to that of the cell viability assay, and plotted as mean±SEM.

[4] = system: p6 HEV; test: ELISA of viral capsid protein ORF2 in viruses released to culture medium; assay type: cell-based; conditions: 10 μM CP11 treated samples; Huh7 cells
Description: (§3) For estimation of the amount of virus released to the culture medium, medium from the above samples were collected and clarified by centrifugation at 7197×g, 4° C. for 15 minutes. 8% PEG (polyethylene glycol) 6000 and 0.4 M NaCl (final concentration) was added to the clarified samples and the mixture was incubated at 0° C. for 16 hours, followed by centrifugation at 20,000×g for 30 minutes. The pellet was resuspended in PBS and RNA was isolated using QIAamp Viral RNA Mini kit. Intracellular RNA was isolated using TRI reagent (MRC, Ohio, USA), following manufactures protocol.
An ELISA was standardized using purified recombinant ORF2 protein (112-608aa region) as the antigen and a rabbit polyclonal anti-ORF2 antibody, which was earlier generated and characterized in our laboratory (48). Specificity of the assay was monitored by including appropriate controls such as rabbit preimmune serum and competition with the peptide, which was used to generate the antibody. […]
For ELISA mediated quantification of p6 HEV present in the culture medium, PEG 6000 precipitated virus was resuspended in PBS and coated onto the ELISA plate overnight at 4° C. […]

[5] = system: g-1 HEV; test: Release of g-1 HEV from infected ORF4-Huh7 cells; assay type: cell-based; conditions: g-1 HEV clinical isolate, 10 μM CP11 every alternate day for 6 days
Description: For infection studies, the HEV infection model was prepared by infecting 4×10^5 ORF4-Huh7 cells with 8×10^6 genome copies of the g-1 HEV clinical isolate for one hour, followed by three times washing of infected cells in PBS and maintenance in complete media for 5 days prior to treatment with CP11.
(§4) On 6th day post-electroporation/post-infection, HEV infection model was treated every alternate day with 10 μM of CP11 for 6 days followed by measurement of cell viability, quantification of replication of the viral genome and release of the progeny viruses.
as §3

[6] = system: p6 HEV expressing Huh7 cells; test: MTT cell viability assay; assay type: cell-based, human; conditions: 10 μM CP11 every alternate day for 6 days
Description: as §2, §4
Cell viability was measured by MTT [3-(4,5-dimethyl-2-thiazolyl)-2,5-diphenyl-2H-tetrazolium bromide] assay using cell titer 96 non-radioactive cell proliferation assay kit.

[7] = system: ORF4 and ORF3; test: In vitro His-pull down assay, ORF3-ORF4 interaction; assay type: binding, HEV; conditions: 1 μM in the reaction mix; western blot
Description: as §1
An in vitro His-pull down assay was performed to monitor whether cyclic peptide inhibits the interaction between HEV ORF3 and human TSG101 proteins. His tagged ORF3 protein was purified from E. coli BL21 (DE3) following previously described protocols (50). […]
Empty pGBKT7 vector was translated in parallel (denoted as mock lysate) to rule out non-specific cross reactivity of myc antibody with proteins present in the rabbit reticulocyte lysate. […] Two non-specific bands were detected in all samples (denoted by *). […]

Question: Which results are given for “CP11: Peptide 11 (CGWIYWNV; SEQ ID NO:1), cyclized and conjugated with the linear Tat peptide (CGRKKRRQRRRPPQ; SEQ ID NO:2) (also: peptide 11 cyclized, mode not given here, conjugated to linear Tat peptide, linkage not given here)”?
Answer: interaction between ORF3 and TSG101 ([1]; 1 μM in the reaction mix): significantly reduced; interaction between ORF3 and TSG101 ([1]; 10 μM of CP11 in the reaction mixture): completely inhibited; inhibition of the interaction between ORF3 and TSG101 proteins, compared with other peptides ([1]; out of several cyclic peptides screened): most efficiently; viral sense strand RNA level in cells [2]: significant increase; luciferase activity (viral replication/RNA stability) [3]: no effect; ORF2 level in PEG 6000 precipitated virus from culture medium [4]: significantly less; block of release of g-1 HEV [5]: approximately 90%; cytotoxic effect (cell viability, MTT) [6]: ruled out the possible cytotoxic effect; also recorded: without showing any cytotoxicity; interaction between ORF4 and ORF3 [7]: remains unaffected

— patent US20200115417A1, “A CYCLIC PEPTIDE AND PHARMACEUTICAL COMPOSITION COMPRISING THE SAME FOR INHIBITING PROLIFERATION OF HEV” (priority 2018, published 2020)
